Consider 1 compound from patent US20060063842A1, “Hypogastric and/or perineal pain-relieving agent” (priority 2002, published 2006).

The test system of this assay is patients with lower urinary tract symptoms. Description: Clinical test (12 week study) to patients suffering from lower urinary tract symptoms: pain scores. The class given is in vivo. The method, then:
Clinical Test (12 Week Study) to Patients Suffering from Lower Urinary Tract Symptoms A clinical study was conducted in patients with lower urinary tract symptoms under the conditions shown below. Subjects: Eighteen patients diagnosed to have urinary dysfunction without accompanying obvious organic or neurological abnormality in lower urinary tract. Study drug and the method of administration: Until Week 4, capsules each containing 0.2 mg tamsulosin hydrochloride were orally administered, one capsule/time/day, after breakfast. In Week 4, the doses for later than Week 4 were determined by referring to the Table below, and the doses determined were orally administered once daily after breakfast. <Criterion of Dose after 4 Weeks> [table] Study period: 12 weeks Observed items: Evaluations and measurements were made for the following items before and after the administration. (2) Pains The pain scores shown below were evaluated before administration, and 4 and 12 weeks after administration. <1> Hypogastric/perineal pain “How strong is hypogastric/perineal pain?” • 0: No pain • 1: Slightly painful • 2: Painful • 3: Quite painful • 4: Very painful <2> Lower backache “How strong is lower backache?” • 0: No pain • 1: Slightly painful • 2: Painful • 3: Quite painful • 4: Very painful

SMILES strings stand for the structures. Counter-ions that a name gives are not always drawn.

`CCOc1ccccc1OCCN[C@H](C)Cc1ccc(OC)c(S(N)(=O)=O)c1` [tamsulosin hydrochloride, (R)(−)-5-[2-[[2-(o-ethoxyphenoxy)ethyl]amino]propyl]-2-methoxybenzenesulfonamide]: the “improvement of hypogastric/perineal pain or lower backache in patients with urinary dysfunction (overall conclusion)” value (12 week clinical study, 18 patients, oral 0.2 or 0.4 mg/day) is given as “effective”. The “number of patients with hypogastric/perineal pain improved to score 0 (no pain)” value (of 7 patients with score 1 (slightly painful) before administration, evaluation in Weeks 4 and 12, oral 0.2 or 0.4 mg/day once daily after breakfast) was 6 patients. For the same compound, the “number of patients with hypogastric/perineal pain unchanged (score 1, slightly painful)” value (of 7 patients with score 1 before administration, evaluation in Weeks 4 and 12, oral 0.2 or 0.4 mg/day) is recorded as 1 patient. Further, the “lower backache score after administration” value (the only 1 patient with lower backache (score 1, slightly painful) before administration, evaluation in Weeks 4 and 12, oral 0.2 or 0.4 mg/day) is “improved to score 0 (no pain)”.
